Assay results from US10221163B2 (priority 2015, dated 2019).
Where a name gives a salt, the structure may show the parent alone. Read-outs that look alike come from different tables or passages of the source.

Legend:
IMP-1 = IMP-1 (Serratia marcescens, UniProt P52699); test: biochemical; format: biochemical; conditions: fluorescence assay, CCF2-FA substrate, 2 pM enzyme, 2 hours at 25° C.; read-out: IMP-1 IC50
In short: (§1)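 Class B activity is measured in the presence of compound by fluorescence with CCF2-FA after a 2-hour incubation at 25° C. IC50 is taken from a 4-parameter fit of semi-logarithmic dose-response data.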

NDM-1 = NDM-1 (Klebsiella pneumoniae, UniProt C7C422); test: biochemical; format: biochemical; conditions: fluorescence assay, CCF2-FA substrate, 1 pM enzyme, 2 hours at 25° C.; read-out: NDM-1 IC50
NDM-1, sequence (C7C422 whole entry, looked up, species assumed): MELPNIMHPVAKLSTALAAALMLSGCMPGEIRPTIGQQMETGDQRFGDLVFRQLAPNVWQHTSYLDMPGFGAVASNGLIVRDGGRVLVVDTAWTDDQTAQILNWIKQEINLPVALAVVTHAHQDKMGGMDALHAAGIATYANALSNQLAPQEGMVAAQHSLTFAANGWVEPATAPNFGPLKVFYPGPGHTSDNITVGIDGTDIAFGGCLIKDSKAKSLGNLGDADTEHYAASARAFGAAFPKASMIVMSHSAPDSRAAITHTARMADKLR
In short: as §1

VIM-1 = VIM-1 (Pseudomonas aeruginosa (strain ATCC 15692 / DSM 22644 / CIP 104116 / JCM 14847 / LMG 12228 / 1C / PRS 101 / PAO1), UniProt A0A0F7KYQ8); test: biochemical; conditions: CCF2-FA substrate, 30 pM enzyme, 2 hours at 25° C.
In short: as §1

[1] = system: Escherichia coli expressing NDM-1 (CLB30005, CLB30016); format: cell-based; conditions: NDM-1 strain, with imipenem 1 μg/ml, 95% inhibition of growth
In short: (§2)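 Growth by absorbance after 22–24 h at 35°C defined the read-out, with imipenem fixed at 1 μg/ml alongside compound. Inocula came from overnight blood-agar colonies at 35°C, resuspended in saline and diluted 1:100 in 1.1×CAMHB.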

[2] = system: Klebsiella pneumoniae expressing VIM-1 (IHMA599644); format: cell-based; conditions: VIM-1 strain IHMA599644, with imipenem 1 μg/ml, 95% inhibition of growth
In short: as §2

[3] = system: Serratia marcescens expressing IMP-1 (CL5741); format: cell-based; conditions: IMP-1 strain CL5741, with imipenem 1 μg/ml, 95% inhibition of growth
In short: as §2

[4] = system: Pseudomonas aeruginosa efflux+ (MB9798), IMP-1; format: cell-based; design: Concentration of metallo-β-lactamase inhibitor which restores susceptibility of efflux + (MB9798) strain to imipenem: unit not given here; conditions: efflux+ MB9798; imipenem at 2 μg/mL; in the presence of a class A, C, D serine β-lactamase inhibitor closely related to relebactam
In short: (§3)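 P. aeruginosa PAO1-derived IMP-1 strains, efflux+ MB9798 and efflux− MB9799, tested by standard microbroth MIC with imipenem and/or ceftazidime fixed, usually at CLSI breakpoint, plus fixed class A/C β-lactamase inhibitor against AmpC. Inhibitor titrated; concentration restoring susceptibility recorded; MB9798/MB9799 fold difference indicates efflux.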

[5] = system: Pseudomonas aeruginosa efflux− (MB9799), IMP-1; format: cell-based; conditions: efflux− MB9799; imipenem at 2 μg/mL; in the presence of a class A, C, D serine β-lactamase inhibitor closely related to relebactam
In short: as §3

[6] = system: Pseudomonas aeruginosa MB9798 vs MB9799; conditions: fold difference between efflux+ (MB9798) and efflux− (MB9799) strains; imipenem at 2 μg/mL
In short: as §3

[7] = fluorescence assay, read-out: VIM-1 IC50

IMP-1, sequence (P52699 whole entry, looked up, species assumed): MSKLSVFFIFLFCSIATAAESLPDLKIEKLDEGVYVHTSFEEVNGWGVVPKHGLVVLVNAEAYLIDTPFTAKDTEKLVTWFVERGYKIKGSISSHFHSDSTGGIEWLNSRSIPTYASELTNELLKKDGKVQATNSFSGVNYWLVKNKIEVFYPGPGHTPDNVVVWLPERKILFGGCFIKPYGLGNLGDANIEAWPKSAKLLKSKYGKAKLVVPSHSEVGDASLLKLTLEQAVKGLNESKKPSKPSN

Structure (SMILES)	IC50 (IMP-1) [nM]	IC50 (NDM-1) [nM]	IC50 (VIM-1; [7]) [nM]	Escherichia coli MITC95 [1] [µM]	Klebsiella pneumoniae MITC95 [2] [µM]	Serratia marcescens MITC95 [3] [µM]	Concentration of metallo-β-lactamase inhibitor which restores susceptibility of efflux + (MB9798) strain to imipenem [4]	Concentration of metallo-β-lactamase inhibitor which restores susceptibility of efflux − (MB9799) strain to imipenem [5]	Efflux ratio [6]	IC50 (VIM-1; VIM-1 IC50, fluorescence assay) [nM]
NCc1nc2cc(-c3ccc(S(=O)(=O)NC[C@@H](O)CN)c(S(N)(=O)=O)c3-c3nn[nH]n3)ccc2[nH]1 [Example 465]	1.15	0.223	0.133	0.7813	1.563	1.563	0.7813	0.7813	1.00	–
NCCNS(=O)(=O)c1ccc(-c2ccc3[nH]c(CN)nc3c2)c(-c2nn[nH]n2)c1S(N)(=O)=O [Example 466, N1-(2-aminoethyl)-4-(2-(aminomethyl)-1H-benzo[d]imidazol-5-yl)-3-(2H-tetrazol-5-yl)benzene-1,2-disulfonamide]	0.967	0.359	0.138	0.7813	1.563	1.563	0.7813	0.7813	1.00	–
Cc1cc(-c2ccc(S(=O)(=O)NC[C@@H](O)CN)c(S(N)(=O)=O)c2-c2nn[nH]n2)cnc1N [Example 468, (S)-N1-(3-amino-2-hydroxypropyl)-4-(6-amino-5-methylpyridin-3-yl)-3-(2H-tetrazol-5-yl)benzene-1,2-disulfonamide]	0.569	0.133	0.0869	0.3906	3.125	0.7813	1.563	0.7813	2.00	–
NC[C@H](O)CNS(=O)(=O)c1ccc(-c2cnc(N)c(F)c2)c(-c2nn[nH]n2)c1S(N)(=O)=O [Example 469, (S)-N1-(3-amino-2-hydroxypropyl)-4-(6-amino-5-fluoropyridin-3-yl)-3-(2H-tetrazol-5-yl)benzene-1,2-disulfonamide]	0.554	0.153	–	1.563	3.125	3.125	0.7813	0.7813	1.00	0.0868
NS(=O)(=O)c1c(S(=O)(=O)N[C@@H]2CCNC2)ccc(-c2cccc(Nc3nc(CO)cs3)c2)c1-c1nn[nH]n1 [Example 470, (R)-3′-((4-(hydroxymethyl)thiazol-2-yl)amino)-N4-(pyrrolidin-3-yl)-2-(2H-tetrazol-5-yl)-[1,1′-biphenyl]-3,4-disulfonamide]	0.134	0.0496	0.11	0.7813	3.125	1.563	1.563	0.7813	2.00	–
NC(=O)c1csc(Nc2cccc(-c3ccc(S(=O)(=O)N[C@@H]4CCNC4)c(S(N)(=O)=O)c3-c3nn[nH]n3)c2)n1 [Example 471, (R)-2-((4′-(N-(pyrrolidin-3-yl)sulfamoyl)-3′-sulfamoyl-2′-(2H-tetrazol-5-yl)-[1,1′-biphenyl]-3-yl)amino)thiazole-4-carboxamide]	0.111	0.0303	0.0734	1.563	3.125	1.563	3.125	0.7813	4.00	–
NS(=O)(=O)c1c(S(=O)(=O)N[C@H]2CCNC2)ccc(-c2cccc(Nc3ncc[nH]3)c2)c1-c1nn[nH]n1 [Example 472, dihydrochloride]	0.847	0.114	–	0.7813	0.7813	0.7813	1.563	0.3906	4.00	0.189
NCc1nc2cc(-c3ccc(S(=O)(=O)NC[C@@H](O)CN)c(S(N)(=O)=O)c3-c3nn[nH]n3)ccc2s1 [Example 473, (S)-N1-(3-amino-2-hydroxypropyl)-4-(2-(aminomethyl)benzo[d]thiazol-5-yl)-3-(2H-tetrazol-5-yl)benzene-1,2-disulfonamide]	0.329	0.136	0.109	0.7813	1.563	1.563	0.7813	0.7813	1.00	–
NCc1nc2cc(-c3ccc(S(=O)(=O)N[C@@H](CN)CO)c(S(N)(=O)=O)c3-c3nn[nH]n3)ccc2[nH]1 [Example 474, (S)-N1-(1-amino-3-hydroxypropan-2-yl)-4-(2-(aminomethyl)-1H-benzo[d]imidazol-5-yl)-3-(2H-tetrazol-5-yl)benzene-1,2-disulfonamide]	0.522	0.104	0.141	0.7813	1.563	1.563	0.7813	0.7813	1.00	–
NCc1nc2cc(-c3ccc(S(=O)(=O)N[C@@H](CN)CO)c(S(N)(=O)=O)c3-c3nn[nH]n3)ccc2s1 [Example 475, (S)-N1-(1-amino-3-hydroxypropan-2-yl)-4-(2-(aminomethyl)benzo[d]thiazol-5-yl)-3-(2H-tetrazol-5-yl)benzene-1,2-disulfonamide]	0.13	0.0604	0.0869	0.7813	1.563	1.563	0.7813	0.7813	1.00	–
NCCNS(=O)(=O)c1ccc(-c2ccc3sc(CN)nc3c2)c(-c2nn[nH]n2)c1S(N)(=O)=O [Example 476, N1-(2-aminoethyl)-4-(2-(aminomethyl)benzo[d]thiazol-5-yl)-3-(2H-tetrazol-5-yl)benzene-1,2-disulfonamide]	0.281	0.27	0.121	1.563	1.563	0.7813	0.7813	0.7813	1.00	–
Cc1cc(-c2ccc(S(=O)(=O)NC[C@H](O)CN)c(S(N)(=O)=O)c2-c2nn[nH]n2)cnc1N [Example 477, (R)—N1-(3-amino-2-hydroxypropyl)-4-(6-amino-5-methylpyridin-3-yl)-3-(2H-tetrazol-5-yl)benzene-1,2-disulfonamide]	0.842	0.28	0.132	0.1953	1.563	0.7813	1.563	0.7813	2.00	–
